Reference: patent US11098045B2, “Haloallylamine indole and azaindole derivative inhibitors of lysyl oxidases and uses thereof” (PHARMAXIS LTD., priority 2016, dated 2021)
Structures can show the parent of a compound that is named as a salt.

What was measured:
[1] = system: Fibroblasts from confirmed cases of IPF; experiment: In vitro fibroblastic foci model of IPF, collagen cross-link formation; type: cell-based; conditions: six weeks culture with TGF-β1; FIGS. 7a and 7b
Source text: Reduction of Collagen Cross-Link Formation in an In Vitro Fibroblastic Foci Model of IPF
The lung tissue of patients with idiopathic pulmonary fibrosis (IPF) is characterised by dense collections of myofibroblasts and extracellular matrix (ECM) termed ‘fibroblastic foci’. Using a novel in vitro model of fibroblastic foci (Jones et al., AJRCCM 191; 2015:A4912) the formation of lysyl oxidase (LOX) mediated collagen cross-links and the effects of the non-selective LOX inhibitor β-aminopropionitrile (BAPN) as well lysyl oxidase like-2 (LOXL2)-selective inhibitors were investigated.
Cultures of primary fibroblasts were grown out from clinical diagnostic biopsies of fibrotic lung and stored in liquid nitrogen. […]
To quantify collagen cross-links (Robins Biochem Soc Trans 2007; 35(5): 849-852; Saito et al Anal. Biochem. 1997; 253: 26-32; Sims, Avery & Bailey Methods in Molecular Biology 2000; vol 139: 11-26), cultures were treated with potassium borohydride to stabilise the reducible immature cross-links, and hydrolysed in 6N HCl at 100° C. for 16 hr. Total collagen content was assessed by hydroxyproline assay. Immature cross-links were assessed by LC/MS/MS and mature pyridinoline cross-links by ELISA. Cross-link data is expressed as moles of cross-link per mole collagen. […]

[2] = system: Streptozotocin induced diabetic nephropathy; experiment: Streptozotocin induced diabetic nephropathy model; type: in vivo, mouse; conditions: diabetic eNOS knockout mice, 24 weeks treatment, 0.1-100 mg/Kg
Source text: Inhibition of Streptozotocin Induced Diabetic Nephropathy
Streptozotocin (STZ)-induced diabetic nephropathy is commonly used for creating rodent models of type 1 diabetes which develop renal injury, due to pancreatic cell damage with similarities to human diabetic nephropathy.
This model can be established for investigating anti-fibrotic effects of compounds in the development of kidney fibrosis.
Diabetes is induced in eNOS knockout mice on C57BL/6 background by intraperitoneal STZ injection (55 mg/kg in 0.1 M citrate buffer) in mice of 6-9 weeks of age (see Huang C et al, Blockade of KCa3.1 ameliorates renal fibrosis through a TGF-b1/Smad pathway in diabetic mice. Diabetes, 2013 62(8):2923-2934).
Blood sugar level (BSL) is determined by tail vein blood. Mice with BSL>16 mmol/L two weeks post STZ injection are considered diabetic. Treatment with Compound 12 is carried out for 24 weeks from diagnosis of diabetes at a dose of 0.1-100 mg/Kg.

[3] = system: Bleomycin induced lung fibrosis; experiment: Bleomycin induced lung fibrosis model; type: in vivo; conditions: mouse, intranasal bleomycin; 15 mg/kg
Experimental: Inhibition of Bleomycin Induced Lung Fibrosis
Bleomycin induced lung fibrosis in rodents is a widely accepted experimental model to determine the anti-fibrotic activity of therapeutic agents.
Fibrosis is induced by intranasal administered of bleomycin sulphate at a dose of 0.05 U/mouse in a total volume of 50 uL PBS (see Corbel, M., et al Inhibition of bleomycin-induced pulmonary fibrosis in mice by the matrix metalloproteinase inhibitor batimastat J Pathol. 2001 April; 193(4):538-45.) Compound 12 is given 0.1-100 mg/Kg throughout the period of the experimental procedure or 7 days after bleomycin administration and then throughout the entire study.
Formalin fixed lungs sections stained with haematoxylin and eosin are assessed for fibrosis as per the scale outlined by Ashcroft et al (Simple method of estimating severity of pulmonary fibrosis on a numerical scale J Clin Pathol 1988; 41:467-470).

[4] = system: CCl4 induced liver fibrosis; experiment: CCl4 induced liver fibrosis model; type: in vivo, rat; conditions: rats, oral CCl4 for 6 weeks; 0.1-100 mg/Kg; compared with vehicle-treated group
Experimental: Inhibition of CCl4 Induced Liver Fibrosis
An analysis of the use of LOXL2 inhibitors to treat inflammatory/fibrotic diseases is performed through the use of a CCl4 induced liver fibrosis model. Liver injury is frequently followed by complete parenchymal regeneration due to regenerative potency of hepatocytes. Continuous liver injury due to the administration of CCl4 leads to extracellular matrix accumulation, accompanied by recurrent hepatocyte necrosis, inflammation, and regenerative processes, causing liver fibrosis and consequently liver cirrhosis (see Natsume, M., et al., Attenuated liver fibrosis and depressed serum albumin levels in carbon tetrachloride-treated IL-6-deficient mice. J. Leukoc. Biol., 1999, 66, 601-608 also See Yao, Q. Y., et al. Inhibition by curcumin of multiple sites of the transforming growth factor-beta1 signalling pathway ameliorates the progression of liver fibrosis induced by carbon tetrachloride in rats. BMC Complement Altern Med. 2012 Sep. 16; 12(1):156.)
Rats are administered orally with CCl4 at a concentration of 0.25 μL/g in olive oil, 3 times per week for 6 weeks. Compound 25 is given 0.1-100 mg/Kg throughout the period of the experimental procedure or only 3 weeks after CCl4 administration and then throughout the entire study. […]

[5] = system: Myocardial infarction induced fibrosis; experiment: Myocardial infarction induced fibrosis model; type: in vivo, mouse; conditions: mice, 0.1-100 mg/Kg once a day by oral gavage; FIG. 5
Source text: Inhibition of Myocardial Infarction Induced Fibrosis
Carotic ligation is a widely accepted experimental model to induce cardiac fibrosis and to determine the anti-fibrotic activity of therapeutic agents.
In mice, the chest is opened via a left thoracotomy. The left coronary artery is identified visually using a stereo microscope, and a 7-0 suture is placed around the artery 1-2 mm below the left auricle. Permanent occlusion of the left coronary artery resulted from its ligation with the suture. Myocardial ischemia was confirmed by pallor in heart color and ST-segment elevation. (see Parajuli et al. Phosphatase PTEN is critically involved in post-myocardial infarction remodeling through the Akt/interleukin-10 signaling pathway Basic Res Cardiol (2012) 107:248).
Mice were subjected to sham or carotic ligation surgery. At 24 hrs post-surgery, echocardiography was performed on the mice. Mice were treated with compound 25 0.1-100 mg/Kg once a day for 21 (7 days after carotic ligation) or 28 days or saline as vehicle controls by oral gavage. At the end of the experiment, echocardiography was repeated to assess left ventricular function and remodeling. Then mice were euthanized for heart collection. Each heart was photographed and fixed with 10% formalin. Hearts were sectioned for Masson's trichrome stain to measure fibrosis (See FIG. 5).

[6] = system: Streptozotocin and high fat diet induced liver fibrosis; experiment: Streptozotocin and high fat diet induced liver fibrosis (STAM model); type: in vivo, mouse; conditions: STAM mice, daily oral gavage 10-30 mg/kg; FIG. 6
Experimental: Streptozotocin and High Fat Diet Induced Liver Fibrosis
High fat/carbohydrate diet induced liver fibrosis is the most common reason for liver dysfunction and ultimately liver failure. NASH is induced in male mice by a single subcutaneous injection of 200 μg streptozotocin solution 2 days after birth and feeding with high fat diet after 4 weeks of age (STAM™ model).
LOXL2 inhibitor compound 112 was administered by daily oral gavage at doses between 10-30 mg/kg 8 weeks after streptozotocin application. Mice were sacrificed after NASH had been established and whole blood samples were taken via cardiac puncture. Liver samples were collected and washed with cold saline. Liver weight was measured. The left lateral, right and caudate lobes of livers were snap frozen in liquid nitrogen and stored at −80° C. For HE staining, sections were cut from paraffin blocks of liver tissue prefixed in Bouin's solution and stained with Lillie-Mayer's Hematoxylin and eosin solution. NAFLD Activity score (NAS) was calculated according to the criteria of Kleiner (Kleiner D E. et al., Design and validation of a histological scoring system for nonalcoholic fatty liver disease. Hepatology, 2005; 41:1313). To visualize collagen deposition, Bouin's fixed liver sections were stained using picro-Sirius red solution and the area of fibrosis was quantified (See FIG. 6).

N#CCCN [BAPN, β-aminopropionitrile, reference compound]
collagen cross-link formation (immature and mature cross-links) [1]: reduced cross-link formation in a concentration dependent manner

CCOC(=O)c1ccc2c(c1)c(-c1cccc(S(=O)(=O)N(C)C)c1)c(C)n2C/C(F)=C/CN [Compound 12, (Z)-ethyl 1-(4-amino-2-fluorobut-2-en-1-yl)-3-(3-(N,N-dimethylsulfamoyl)phenyl)-2-methyl-1H-indole-5-carboxylate]
kidney function by albumin/creatinine ratio quantification [2]: significant improvement in kidney function
reduction of fibrosis by Masson's Trichrome staining ([2]; compared with vehicle-treated group): up to 50%
Ashcroft score in the lungs [3]: significantly reduced this score

Cc1c(-c2cccc(S(=O)(=O)N(C)C)c2)c2ncccc2n1C/C(F)=C/CN [Compound 25, (Z)-3-(1-(4-amino-2-fluorobut-2-en-1-yl)-2-methyl-1H-pyrrolo[3,2-b]pyridin-3-yl)-N,N-dimethylbenzenesulfonamide Dihydrochloride]
reduction of fibrosis in the liver by sirius red staining with quantification [4]: up to 50%
fibrosis after ligation (Masson's trichrome stain) [5]: reduce fibrosis

Cc1ccc2c(n1)c(-c1cccc(S(C)(=O)=O)c1)c(C)n2C/C(F)=C/CN [Compound 112, (Z)-4-(2,5-dimethyl-3-(3-(methylsulfonyl)phenyl)-1H-pyrrolo[3,2-b]pyridin-1-yl)-3-fluorobut-2-en-1-amine Dihydrochloride]
liver fibrosis (picro-Sirius red area of fibrosis) [6]: reduce liver fibrosis
collagen cross-link formation (immature and mature cross-links) [1]: reduced cross-link formation in a concentration dependent manner
